Experimental findings from patent publication US20260007681A1, “INDOLE DERIVATIVES AS ESTROGEN RECEPTOR DEGRADERS” (REGENTS OF THE UNIVERSITY OF MICHIGAN, priority 2022, published 2026) are described below.

For the assay, the target named is ER (Homo sapiens (Human), UniProt P03372). Nature of the assay: Western blot analysis (Compounds B1-B278). Format: cell-based. Conditions: ER degradation by traditional Western blot; DC50 classes. The protocol: Western Blot Analysis. The cells that are treated with the compounds are lysed in Radioimmunoprecipitation Assay Protein Lysis and Extraction Buffer (e.g., 25 mmol/L Tris.HCl, pH 7.6, 150 mmol/L NaCl, 1% Nonidet P-40, 1% sodium deoxycholate, and 0.1% sodium dodecyl sulfate) containing proteinase inhibitor cocktail. Equal amounts of total protein are electrophoresed through 10% SDS-polyacrylamide gels after determination of protein concentration by BCA assay. The separated protein bands are transferred onto PVDF membranes and blotted against different antibodies. The blots are scanned, and the band intensities are quantified (e.g., by using GelQuant.NET software provided by biochemlabsolutions.com). The relative mean intensity of target proteins is expressed after normalization to the intensity of glyceraldehyde-3-phosphate dehydrogenase bands.
Chain of ER (P03372 whole entry): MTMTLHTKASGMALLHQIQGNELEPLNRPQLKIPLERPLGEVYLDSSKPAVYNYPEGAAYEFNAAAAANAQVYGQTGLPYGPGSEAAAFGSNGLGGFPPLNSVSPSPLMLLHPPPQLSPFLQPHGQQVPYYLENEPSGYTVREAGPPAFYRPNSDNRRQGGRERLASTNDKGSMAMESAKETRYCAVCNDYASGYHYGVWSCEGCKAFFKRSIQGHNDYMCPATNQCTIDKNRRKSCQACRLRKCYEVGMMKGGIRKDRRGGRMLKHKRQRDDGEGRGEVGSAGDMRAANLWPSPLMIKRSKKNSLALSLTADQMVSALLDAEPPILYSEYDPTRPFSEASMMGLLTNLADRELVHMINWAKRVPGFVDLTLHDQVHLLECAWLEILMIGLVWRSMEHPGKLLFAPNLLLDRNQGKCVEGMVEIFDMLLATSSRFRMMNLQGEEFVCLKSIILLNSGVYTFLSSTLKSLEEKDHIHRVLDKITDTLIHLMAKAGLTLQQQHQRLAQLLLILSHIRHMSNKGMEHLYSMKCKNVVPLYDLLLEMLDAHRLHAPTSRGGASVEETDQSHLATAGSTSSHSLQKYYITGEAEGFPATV
Western Blot Analysis. Western blot analysis was performed essentially as described previously. The cells treated with indicated compounds were lysed in Radioimmunoprecipitation Assay Protein Lysis and Extraction Buffer (25 mmol/L Tris.HCl, pH 7.6, 150 mmol/L NaCl, 1% Nonidet P-40, 1% sodium deoxycholate, and 0.1% sodium dodecyl sulfate) containing proteinase inhibitor cocktail (Roche Diagnostics, Mannheim, Germany). Equal amounts of total protein were electrophoresed through 10% SDS-polyacrylamide gels after determination of protein concentration by BCA assay (Fisher Scientific, Pittsburgh, PA). The separated protein bands were transferred onto PVDF membranes (GE Healthcare Life Sciences, Marlborough, MA) and blotted against different antibodies, as indicated. The blots were scanned, and the band intensities were quantified using GelQuant.NET software provided by biochemlabsolutions.com. The relative mean intensity of target proteins was expressed after normalization to the intensity of glyceraldehyde-3-phosphate dehydrogenase bands.
(In western blotting, separated proteins are transferred to a membrane and probed.)
In the case of `C[C@@H]1Cc2c([nH]c3ccccc23)[C@@H](c2c(F)cc(N3CCC(N4CCN(CC(=O)N5Cc6cc7c(cc6C5)C(=O)N(C5CCC(=O)NC5=O)C7=O)CC4)CC3)cc2F)N1CC(F)F` (stereo partly drawn) [Compound B35, 6-(2-(4-(1-(4-((1R,3R)-2-(2,2-difluoroethyl)-3-methyl-2,3,4,9-tetrahydro-1H-pyrido[3,4-b]indol-1-yl)-3,5-difluorophenyl)piperidin-4-yl)piperazin-1-yl)acetyl)-2-(2,6-dioxopiperidin-3-yl)-6,7-dihydropyrrolo[3,4-f]isoindole-1,3(2H,5H)-dione], the “Traditional Western Degradation Potency” value is recorded as “A (“A”: <10 nM)”.
On to `C[C@@H]1Cc2c([nH]c3ccccc23)[C@@H](c2c(F)cc(N3CCC(N4CCN(CC(=O)N5Cc6cc7c(cc6C5)C(=O)N(C5CCC(=O)NC5=O)C7)CC4)CC3)cc2F)N1CC(F)F` (stereo partly drawn) [Compound B36, 3-(6-(2-(4-(1-(4-((1R,3R)-2-(2,2-difluoroethyl)-3-methyl-2,3,4,9-tetrahydro-1H-pyrido[3,4-b]indol-1-yl)-3,5-difluorophenyl)piperidin-4-yl)piperazin-1-yl)acetyl)-1-oxo-3,5,6,7-tetrahydropyrrolo[3,4-f]isoindol-2(1H)-yl)piperidine-2,6-dione], for which the “Traditional Western Degradation Potency” value is given as “A (“A”: <10 nM)”.
For `C[C@@H]1Cc2c([nH]c3ccccc23)[C@@H](c2c(F)cc(N3CC4(CCN(CC(=O)N5Cc6cc7c(cc6C5)C(=O)N(C5CCC(=O)NC5=O)C7=O)CC4)C3)cc2F)N1CC(F)F` (stereo partly drawn) [Compound B37, 6-(2-(2-(4-((1R,3R)-2-(2,2-difluoroethyl)-3-methyl-2,3,4,9-tetrahydro-1H-pyrido[3,4-b]indol-1-yl)-3,5-difluorophenyl)-2,7-diazaspiro[3.5]nonan-7-yl)acetyl)-2-(2,6-dioxopiperidin-3-yl)-6,7-dihydropyrrolo[3,4-f]isoindole-1,3(2H,5H)-dione] the value was “B (“B”: 10-100 nM)”; for `C[C@@H]1Cc2c([nH]c3ccccc23)[C@@H](c2c(F)cc(N3CC4(CCN(CC(=O)N5Cc6cc7c(cc6C5)C(=O)N(C5CCC(=O)NC5=O)C7)CC4)C3)cc2F)N1CC(F)F` (stereo partly drawn) [Compound B38, 3-(6-(2-(2-(4-((1R,3R)-2-(2,2-difluoroethyl)-3-methyl-2,3,4,9-tetrahydro-1H-pyrido[3,4-b]indol-1-yl)-3,5-difluorophenyl)-2,7-diazaspiro[3.5]nonan-7-yl)acetyl)-1-oxo-3,5,6,7-tetrahydropyrrolo[3,4-f]isoindol-2(1H)-yl)piperidine-2,6-dione], “A (“A”: <10 nM)”; for `C[C@@H]1Cc2c([nH]c3ccccc23)[C@@H](c2c(F)cc(N3CCC4(CC3)CC(C(=O)N3CCC(CN5Cc6cc7c(cc6C5)C(=O)N(C5CCC(=O)NC5=O)C7=O)CC3)C4)cc2F)N1CC(F)F` (stereo partly drawn) [Compound B39, 6-((1-(7-(4-((1R,3R)-2-(2,2-difluoroethyl)-3-methyl-2,3,4,9-tetrahydro-1H-pyrido[3,4-b]indol-1-yl)-3,5-difluorophenyl)-7-azaspiro[3.5]nonane-2-carbonyl)piperidin-4-yl)methyl)-2-(2,6-dioxopiperidin-3-yl)-6,7-dihydropyrrolo[3,4-f]isoindole-1,3(2H,5H)-dione], “B (“B”: 10-100 nM)”.
As to `C[C@@H]1Cc2c([nH]c3ccccc23)[C@@H](c2c(F)cc(N3CCC4(CC3)CC(C(=O)N3CCC(N5Cc6cc7c(cc6C5)C(=O)N(C5CCC(=O)NC5=O)C7=O)CC3)C4)cc2F)N1CC(F)F` (stereo partly drawn) [Compound B40, 6-(1-(7-(4-((1R,3R)-2-(2,2-difluoroethyl)-3-methyl-2,3,4,9-tetrahydro-1H-pyrido[3,4-b]indol-1-yl)-3,5-difluorophenyl)-7-azaspiro[3.5]nonane-2-carbonyl)piperidin-4-yl)-2-(2,6-dioxopiperidin-3-yl)-6,7-dihydropyrrolo[3,4-f]isoindole-1,3(2H,5H)-dione], the “Traditional Western Degradation Potency” value was “A (“A”: <10 nM)”.
